These results are taken from patent US20120040977A1, “INHIBITORS OF HCV NS5A” (PRESIDIO PHARMACEUTICALS, INC., priority 2009, published 2012).

Molecules are shown by their SMILES.

The test system of this test is HCV genotype 1b replicon. Put plainly: HCV replicon assay (HCV 1b_Huh-Luc/Neo-ET cell line, luciferase readout). It counts as cell-based. As to conditions: Hepatitis C virus; bicistronic genotype 1b replicon in Huh 7 cells, 72 h incubation, luciferase enzyme activity; read-out: Inhibition of HCV genotype 1b. A digest of the protocol:
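Huh 7 cells carrying a bicistronic genotype 1b luciferase replicon treated with compound in triplicate for 72 h. Luciferase activity expressed as percent of untreated control; EC50 from four-parameter curve fit, determined several times.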
In the case of `CC(C)(C)OC(=O)N[C@@H](C(=O)N1CCC[C@H]1C(=O)Nc1ccc(-c2ccc(-c3cnc([C@@H]4COCCN4C(=O)[C@H](NC(=O)OC(C)(C)C)c4ccccc4)[nH]3)cc2)cc1)c1ccccc1` [Compound 8], the EC50 was less than 1 nM.
As to `COC(=O)N[C@H](C(=O)N1CCC[C@H]1C(=O)N[C@@H](C)c1ccc(-c2ccc(-c3cnc([C@@H]4CCCN4C(=O)[C@@H](NC(=O)OC)[C@@H](C)OC)[nH]3)cc2)cc1)[C@@H](C)OC` [Compound 100], the EC50 was less than 1 nM.
Turning to `CC(C)(C)OC(=O)N[C@@H](C(=O)N1CCOC[C@H]1C(=O)Nc1ccc(-c2ccc(-c3cnc([C@@H]4COCCN4C(=O)[C@H](NC(=O)OC(C)(C)C)c4ccccc4)[nH]3)cc2)cc1)c1ccccc1` [Compound 16], the EC50 is less than 1 nM.
The same measure for `C[C@@H](NC(=O)OC(C)(C)C)C(=O)N1CCC[C@H]1C(=O)Nc1ccc(-c2ccc(-c3cnc([C@@H]4COCCN4C(=O)[C@@H](C)NC(=O)OC(C)(C)C)[nH]3)cc2)cc1` [Compound 9]: 10 to 999 nM; for `C=CC[C@H](NC(=O)OC)C(=O)N1CCC[C@H]1C(=O)Nc1ccc(-c2ccc(-c3cnc([C@@H]4CCCN4C(=O)[C@H](CC=C)NC(=O)OC)[nH]3)cc2)cc1` [Compound 75]: 1 to 9.9 nM.
`C[C@@H](NC(=O)[C@@H]1CCCN1C(=O)[C@H](NC(=O)N1CCOCC1)c1ccccc1)c1ccc(-c2ccc(-c3cnc([C@@H]4CCCN4C(=O)[C@H](NC(=O)N4CCOCC4)c4ccccc4)[nH]3)cc2)cc1` [Compound 41]: the EC50 fell in the range of 1 to 9.9 nM.
